US12077503B2, “Substituted cyclic amides and their use as herbicides” (FMC CORPORATION, priority 2015, dated 2024)

Tests used:
Type in all cases: in vivo
Kochia (Kochia scoparia) [1] = assay: Test A preemergence; details: Bassia scoparia, pre-emergence, 240 h, 0 to 100 scale where 0 is no effect and 100 is complete control, read-out: Kochia plant response rating
Procedure, shortened: (§1)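 Preemergence soil spray on seeded pots or post-emergence spray on 1–2 leaf plants, in loam–sand blend. Greenhouse ~10 d. Visual rating 0–100 against untreated plants.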

[2] = tested on: barnyardgrass (Echinochloa crus-galli); assay: Test A preemergence; details: Echinochloa crus-galli, pre-emergence, 240 h, 0 to 100 scale where 0 is no effect and 100 is complete control, read-out: Barnyardgrass plant response rating
Procedure, shortened: as §1

[3] = tested on: giant foxtail (Setaria faberii); assay: Test A preemergence; details: Setaria faberi, pre-emergence, 240 h, 0 to 100 scale where 0 is no effect and 100 is complete control, read-out: Foxtail, Giant plant response rating
Procedure, shortened: as §1

[4] = tested on: pigweed (Amaranthus retroflexus); assay: Test A preemergence; details: Amaranthus retroflexus, pre-emergence, 240 h, 0 to 100 scale where 0 is no effect and 100 is complete control, read-out: Pigweed plant response rating
[5] = tested on: ragweed (common ragweed, Ambrosia elatior); assay: Test A preemergence; details: Ambrosia artemisiifolia, pre-emergence, 240 h, 0 to 100 scale where 0 is no effect and 100 is complete control, read-out: Ragweed plant response rating
Procedure, shortened: as §1

[6] = tested on: ryegrass, Italian (Italian ryegrass, Lolium multiflorum); assay: Test A preemergence; details: Lolium multiflorum, pre-emergence, 240 h, 0 to 100 scale where 0 is no effect and 100 is complete control, read-out: Ryegrass, Italian plant response rating
Procedure, shortened: as §1

[7] = tested on: Galium (catchweed bedstraw, Galium aparine); assay: Test A postemergence; details: Galium, post-emergence, 240 h
Procedure, shortened: as §1

Kochia (Kochia scoparia) [8] = assay: Test A postemergence; details: Bassia scoparia, post-emergence, 240 h
Procedure, shortened: as §1

[9] = tested on: barnyardgrass (Echinochloa crus-galli); assay: Test A postemergence; details: Echinochloa crus-galli, post-emergence, 240 h
Procedure, shortened: as §1

[10] = tested on: blackgrass (Alopecurus myosuroides); assay: Test A postemergence; details: Alopecurus myosuroides, post-emergence, 240 h
Procedure, shortened: as §1

corn (Zea mays) = assay: Test A postemergence; details: Zea mays, post-emergence, 240 h
Procedure, shortened: as §1

[11] = tested on: giant foxtail (Setaria faberii); assay: Test A postemergence; details: Setaria faberi, post-emergence, 240 h
Procedure, shortened: as §1

[12] = tested on: pigweed (Amaranthus retroflexus); assay: Test A postemergence; details: Amaranthus retroflexus, post-emergence, 240 h
Procedure, shortened: as §1

[13] = tested on: ragweed (common ragweed, Ambrosia elatior); assay: Test A postemergence; details: Ambrosia artemisiifolia, post-emergence, 240 h
Procedure, shortened: as §1

[14] = tested on: ryegrass, Italian (Italian ryegrass, Lolium multiflorum); assay: Test A postemergence; details: Lolium multiflorum, post-emergence, 240 h
Procedure, shortened: as §1

[15] = tested on: wheat (Triticum aestivum); assay: Test A postemergence; details: Triticum aestivum, post-emergence, 240 h
Procedure, shortened: as §1

[16] = tested on: barnyardgrass (Echinochloa crus-galli); assay: Test B flooded paddy test; details: Echinochloa crus-galli, 250 g ai/ha, Flood; 0 to 100 scale where 0 is no effect and 100 is complete control; read-out: Barnyardgrass plant response rating
Procedure, shortened: (§2)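 Percent control, visually estimated after 13–15 d in the greenhouse on a 0–100 basis, compares treated pots with untreated ones; compound was put into paddy water 3 cm above the soil when plants had two leaves.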

[17] = tested on: ducksalad (Heteranthera limosa); assay: Test B flooded paddy test; details: Heteranthera limosa, 250 g ai/ha, Flood; 0 to 100 scale where 0 is no effect and 100 is complete control; read-out: Ducksalad plant response rating
Procedure, shortened: as §2

rice (Oryra sativa) = assay: Test B flooded paddy test; details: Oryza sativa, 250 g ai/ha, Flood; 0 to 100 scale where 0 is no effect and 100 is complete control; read-out: Rice plant response rating
Procedure, shortened: as §2

[18] = tested on: sedge, umbrella (small-flower umbrella sedge, Cyperus difformis); assay: Test B flooded paddy test; details: Cyperus difformis, 250 g ai/ha, Flood; 0 to 100 scale where 0 is no effect and 100 is complete control; read-out: Sedge, Umbrella plant response rating
Procedure, shortened: as §2

[19] = 125 g ai/ha, preemergence, approx. 10 d

## C=C(C)c1cccc([C@H]2CN(C)C(=O)[C@@H]2C(=O)Nc2cccc(F)c2F)c1 [Compound 1085]
Kochia (Kochia scoparia) [1]; 31 g ai/ha, Preemergence
  pest or weed control at 31 g/ha: 0%
Kochia (Kochia scoparia) [1]; [19]
  pest or weed control at 125 g/ha: 0%
[2]; 31 g ai/ha, Preemergence
  pest or weed control at 31 g/ha: 0%
[2]; [19]
  pest or weed control at 125 g/ha: 90%
[3]; 31 g ai/ha, Preemergence
  pest or weed control at 31 g/ha: 90%
[3]; [19]
  pest or weed control at 125 g/ha: 100%
[4]; 31 g ai/ha, Preemergence
  pest or weed control at 31 g/ha: 0%
[4]; [19]
  pest or weed control at 125 g/ha: 0%
[5]; 31 g ai/ha, Preemergence
  pest or weed control at 31 g/ha: 0%
[5]; [19]
  pest or weed control at 125 g/ha: 0%
[6]; 31 g ai/ha, Preemergence
  pest or weed control at 31 g/ha: 0%
[6]; [19]
  pest or weed control at 125 g/ha: 0%
[7]; 125 g ai/ha, postemergence, visual injury on 0 to 100 scale (0 no effect, 100 complete control), approx. 10 d, read-out: Galium plant response rating
  pest or weed control at 125 g/ha: 60%
[7]; Postemergence, 31 g ai/ha, visual injury after approx. 10 d, 0 to 100 scale, 0 no effect, 100 complete control, read-out: Plant response rating, Galium
  pest or weed control at 31 g/ha: 40%
Kochia (Kochia scoparia) [8]; 125 g ai/ha, postemergence, visual injury on 0 to 100 scale (0 no effect, 100 complete control), approx. 10 d, read-out: Kochia plant response rating
  pest or weed control at 125 g/ha: 20%
Kochia (Kochia scoparia) [8]; Postemergence, 31 g ai/ha, visual injury after approx. 10 d, 0 to 100 scale, 0 no effect, 100 complete control, read-out: Plant response rating, Kochia
  pest or weed control at 31 g/ha: 0%
[9]; 125 g ai/ha, postemergence, visual injury on 0 to 100 scale (0 no effect, 100 complete control), approx. 10 d, read-out: Barnyardgrass plant response rating
  pest or weed control at 125 g/ha: 90%
[9]; Postemergence, 31 g ai/ha, visual injury after approx. 10 d, 0 to 100 scale, 0 no effect, 100 complete control, read-out: Plant response rating, Barnyardgrass
  pest or weed control at 31 g/ha: 40%
[10]; 125 g ai/ha, postemergence, visual injury on 0 to 100 scale (0 no effect, 100 complete control), approx. 10 d, read-out: Blackgrass plant response rating
  pest or weed control at 125 g/ha: 20%
[10]; Postemergence, 31 g ai/ha, visual injury after approx. 10 d, 0 to 100 scale, 0 no effect, 100 complete control, read-out: Plant response rating, Blackgrass
  pest or weed control at 31 g/ha: 0%
Corn (Zea mays); 125 g ai/ha, postemergence, visual injury on 0 to 100 scale (0 no effect, 100 complete control), approx. 10 d, read-out: Corn plant response rating
  plant injury at 125 g/ha: 20%
Corn (Zea mays); Postemergence, 31 g ai/ha, visual injury after approx. 10 d, 0 to 100 scale, 0 no effect, 100 complete control
  Corn plant response rating (crop injury, 0 = no effect, 100 = complete kill) at 31 g/ha: 20%
[11]; 125 g ai/ha, postemergence, visual injury on 0 to 100 scale (0 no effect, 100 complete control), approx. 10 d, read-out: Foxtail, Giant plant response rating
  pest or weed control at 125 g/ha: 60%
[11]; Postemergence, 31 g ai/ha, visual injury after approx. 10 d, 0 to 100 scale, 0 no effect, 100 complete control, read-out: Plant response rating, Foxtail, Giant
  pest or weed control at 31 g/ha: 0%
[12]; 125 g ai/ha, postemergence, visual injury on 0 to 100 scale (0 no effect, 100 complete control), approx. 10 d, read-out: Pigweed plant response rating
  pest or weed control at 125 g/ha: 20%
[12]; Postemergence, 31 g ai/ha, visual injury after approx. 10 d, 0 to 100 scale, 0 no effect, 100 complete control, read-out: Plant response rating, Pigweed
  pest or weed control at 31 g/ha: 0%
[13]; 125 g ai/ha, postemergence, visual injury on 0 to 100 scale (0 no effect, 100 complete control), approx. 10 d, read-out: Ragweed plant response rating
  pest or weed control at 125 g/ha: 0%
[13]; Postemergence, 31 g ai/ha, visual injury after approx. 10 d, 0 to 100 scale, 0 no effect, 100 complete control, read-out: Plant response rating, Ragweed
  pest or weed control at 31 g/ha: 0%
[14]; 125 g ai/ha, postemergence, visual injury on 0 to 100 scale (0 no effect, 100 complete control), approx. 10 d, read-out: Ryegrass, Italian plant response rating
  pest or weed control at 125 g/ha: 20%
[14]; Postemergence, 31 g ai/ha, visual injury after approx. 10 d, 0 to 100 scale, 0 no effect, 100 complete control, read-out: Plant response rating, Ryegrass, Italian
  pest or weed control at 31 g/ha: 0%
[15]; 125 g ai/ha, postemergence, visual injury on 0 to 100 scale (0 no effect, 100 complete control), approx. 10 d, read-out: Wheat plant response rating
  plant injury at 125 g/ha: 20%
[15]; Postemergence, 31 g ai/ha, visual injury after approx. 10 d, 0 to 100 scale, 0 no effect, 100 complete control, read-out: Plant response rating, Wheat
  plant injury at 31 g/ha: 0%
[16]
  pest or weed control at 250 g/ha: 60%
[17]
  pest or weed control at 250 g/ha: 30%
Rice (Oryra sativa)
  pest or weed control at 250 g/ha: 25%
[18]
  pest or weed control at 250 g/ha: 0%
